Experimental findings from ChEMBL document CHEMBL1201862, “PubChem BioAssay data set” (2004) are described below.

Activity calls are given as the source filed them.

Assay [1] concerns the target T1, Histone-lysine N-methyltransferase NSD2 (Homo sapiens, UniProt O96028).
T1 sequence (O96028 whole entry): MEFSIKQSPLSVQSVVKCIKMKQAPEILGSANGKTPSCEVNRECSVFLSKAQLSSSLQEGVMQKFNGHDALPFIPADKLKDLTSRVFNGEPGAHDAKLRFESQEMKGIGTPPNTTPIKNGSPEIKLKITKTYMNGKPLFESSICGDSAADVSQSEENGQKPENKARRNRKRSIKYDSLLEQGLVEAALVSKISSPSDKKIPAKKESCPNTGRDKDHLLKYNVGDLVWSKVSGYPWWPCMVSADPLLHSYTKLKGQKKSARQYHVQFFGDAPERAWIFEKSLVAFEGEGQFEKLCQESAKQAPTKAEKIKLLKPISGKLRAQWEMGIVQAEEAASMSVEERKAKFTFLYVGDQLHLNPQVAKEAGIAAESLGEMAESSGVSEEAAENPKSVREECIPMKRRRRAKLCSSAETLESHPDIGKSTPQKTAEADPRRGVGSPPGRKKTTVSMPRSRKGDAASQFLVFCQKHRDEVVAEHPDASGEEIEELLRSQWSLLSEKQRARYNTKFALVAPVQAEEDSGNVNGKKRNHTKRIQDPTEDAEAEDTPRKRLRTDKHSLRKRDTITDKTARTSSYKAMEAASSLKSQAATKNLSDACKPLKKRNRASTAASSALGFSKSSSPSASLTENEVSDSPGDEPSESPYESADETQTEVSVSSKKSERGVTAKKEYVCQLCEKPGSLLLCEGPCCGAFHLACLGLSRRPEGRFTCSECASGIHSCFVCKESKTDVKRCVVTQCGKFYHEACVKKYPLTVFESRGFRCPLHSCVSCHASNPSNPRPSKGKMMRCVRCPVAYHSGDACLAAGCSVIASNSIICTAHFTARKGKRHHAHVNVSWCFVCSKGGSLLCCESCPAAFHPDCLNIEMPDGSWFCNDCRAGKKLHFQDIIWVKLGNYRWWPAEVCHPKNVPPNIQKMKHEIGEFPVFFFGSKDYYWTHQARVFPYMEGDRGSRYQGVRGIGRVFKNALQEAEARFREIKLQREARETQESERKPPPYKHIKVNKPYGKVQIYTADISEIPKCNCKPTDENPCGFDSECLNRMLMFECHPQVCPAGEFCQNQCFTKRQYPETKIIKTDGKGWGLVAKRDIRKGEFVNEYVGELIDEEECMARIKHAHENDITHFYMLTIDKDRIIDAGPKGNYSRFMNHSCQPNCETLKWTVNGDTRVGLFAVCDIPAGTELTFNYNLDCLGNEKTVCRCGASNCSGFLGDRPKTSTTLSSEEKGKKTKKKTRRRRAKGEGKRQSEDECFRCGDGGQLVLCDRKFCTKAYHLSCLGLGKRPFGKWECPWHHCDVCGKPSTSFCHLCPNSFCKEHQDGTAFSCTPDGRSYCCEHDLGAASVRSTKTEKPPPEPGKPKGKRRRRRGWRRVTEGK
The class given is biochemical.

Assay [2] deals with T2, Tyrosyl-DNA phosphodiesterase 2 (Homo sapiens, UniProt O95551).
T2 sequence (O95551 whole entry): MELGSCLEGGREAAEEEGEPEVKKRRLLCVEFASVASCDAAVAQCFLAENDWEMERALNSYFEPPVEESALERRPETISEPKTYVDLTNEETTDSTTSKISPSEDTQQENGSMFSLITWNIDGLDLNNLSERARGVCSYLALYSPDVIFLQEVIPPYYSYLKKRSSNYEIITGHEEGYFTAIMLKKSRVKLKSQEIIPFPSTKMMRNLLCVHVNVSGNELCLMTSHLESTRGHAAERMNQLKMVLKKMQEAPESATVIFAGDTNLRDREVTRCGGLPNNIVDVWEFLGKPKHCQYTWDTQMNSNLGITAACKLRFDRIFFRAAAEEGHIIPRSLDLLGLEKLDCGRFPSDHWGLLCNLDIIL
The assay is described as follows: potency against TDP2 phosphodiesterase activity – biochemical, epi absorbance, IC50, dose response (AID 743297).

Assay [3] has as its target Heat shock protein HSP 90-alpha (Homo sapiens, UniProt P07900). It counts as functional, organism-based.
For assay [4], the system named is Escherichia coli. The assay is described as follows: microbe, parasite or virus in culture.
Assay [5] concerns the target Transitional endoplasmic reticulum ATPase (Homo sapiens, UniProt P55072, C522A). Kind of assay: C522A mutant p97 ATPase inhibitors, dose response, counter-screen for p97 inhibitor project, biochemical, luminescence (AID 1544). (The purpose of a counterscreen is to sort out artefacts and off-target activity.)
The target in assay [6] is Transitional endoplasmic reticulum ATPase (Homo sapiens, UniProt P55072). Kind of assay: p97 ATPase inhibitors, dose response, biochemical (AID 1534).
Transitional endoplasmic reticulum ATPase (Homo sapiens, UniProt P55072), sequence (P55072 whole entry): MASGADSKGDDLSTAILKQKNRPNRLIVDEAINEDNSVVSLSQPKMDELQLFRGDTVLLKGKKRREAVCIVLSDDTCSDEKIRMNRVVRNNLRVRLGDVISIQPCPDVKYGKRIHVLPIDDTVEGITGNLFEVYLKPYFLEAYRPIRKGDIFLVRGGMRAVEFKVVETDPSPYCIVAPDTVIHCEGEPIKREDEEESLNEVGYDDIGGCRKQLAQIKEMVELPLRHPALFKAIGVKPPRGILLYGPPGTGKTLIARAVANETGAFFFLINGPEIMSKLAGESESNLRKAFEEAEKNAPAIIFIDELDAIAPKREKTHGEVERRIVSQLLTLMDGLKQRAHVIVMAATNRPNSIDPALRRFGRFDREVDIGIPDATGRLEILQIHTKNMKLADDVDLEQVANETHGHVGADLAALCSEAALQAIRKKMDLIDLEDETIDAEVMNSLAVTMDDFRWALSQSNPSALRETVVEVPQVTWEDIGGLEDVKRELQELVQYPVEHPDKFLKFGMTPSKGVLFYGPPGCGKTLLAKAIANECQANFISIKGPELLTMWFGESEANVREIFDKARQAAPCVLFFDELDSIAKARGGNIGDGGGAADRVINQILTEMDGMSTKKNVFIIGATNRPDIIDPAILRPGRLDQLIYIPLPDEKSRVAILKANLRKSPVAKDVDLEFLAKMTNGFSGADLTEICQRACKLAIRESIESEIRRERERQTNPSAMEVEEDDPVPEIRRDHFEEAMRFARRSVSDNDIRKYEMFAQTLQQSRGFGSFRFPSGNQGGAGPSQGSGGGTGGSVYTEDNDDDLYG
Assay [7] in a line: NIH-3T3 fibroblast cytotoxicity, dose response, cytotoxicity control, cell-based, fluorescence, Alamar Blue, secondary assay (AID 2327).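 Also: NIH-3T3 mouse fibroblasts cultured with fluconazole at 8 µg/mL.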 It counts as functional. In general terms: Alamar Blue is a resazurin reagent that responds to reducing activity.
The test system of assay [8] is Streptococcus sp. 'group A'. Kind of assay: Streptococcus pyogenes SK(-)GAS viability under kanamycin – luminescence, BacTiterGlo, confirmation, counter-screen for streptokinase expression inhibitor project, dose response (AID 1900). It counts as functional, organism-based.
Assay [9] is described as follows: fluconazole-exposed Candida albicans growth modulators – fluorescence, retest, confirmation (AID 2467). The class given is functional, cell-based.
Assay [10] has as its system Streptococcus. Kind of assay: GAS UMAA2166 growth inhibition – luminescence, BacTiterGlo, counter-screen for streptokinase expression inhibitor project, dose response (AID 1915).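 Also: potency for reduction of bacterial viability or growth.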 It counts as functional, organism-based.
The target of assay [11] is Paired box protein Pax-8 (Homo sapiens, UniProt Q06710). Kind of assay: PAX8 transcriptional activity inhibition in RMG-I – RMG-I cells, luciferase, cherry-pick, dose response (AID 687027).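 Also: luciferase reporter driven by Pax8 target thyroperoxidase promoter measured by SteadyGlo luminescence.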 It counts as functional, cell-based.
Paired box protein Pax-8, sequence (Q06710 whole entry): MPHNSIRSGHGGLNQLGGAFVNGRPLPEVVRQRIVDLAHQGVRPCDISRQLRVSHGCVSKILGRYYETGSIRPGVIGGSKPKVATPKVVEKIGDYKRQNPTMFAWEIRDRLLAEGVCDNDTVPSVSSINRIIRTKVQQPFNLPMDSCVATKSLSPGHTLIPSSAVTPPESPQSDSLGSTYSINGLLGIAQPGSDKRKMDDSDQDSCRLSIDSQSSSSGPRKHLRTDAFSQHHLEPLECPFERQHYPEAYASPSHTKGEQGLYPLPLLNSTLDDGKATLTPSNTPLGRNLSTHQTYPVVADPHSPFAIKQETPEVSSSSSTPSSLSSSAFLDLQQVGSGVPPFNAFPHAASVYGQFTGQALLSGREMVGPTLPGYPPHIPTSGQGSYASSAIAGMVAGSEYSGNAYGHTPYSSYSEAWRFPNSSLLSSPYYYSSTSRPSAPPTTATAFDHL
Assay [12] is described as follows: rise of 2N DNA cells, HeLa – IC50, dose response (AID 1117349). The class given is functional, cell-based.
Assay [13] is described as follows: cytotoxicity toward HT-29 cells – cell-based, CellTiter-Glo luminescence, IC50, dose response (AID 1117330). It counts as functional. On the technique in general: ATP-based viability assays read luminescence as a measure of living cells.
Assay [14] is described as follows: Reduced DLD-1 viability, concentration-response, CellTiter-Glo luminescence (AID 1117352). It counts as functional.
The target of assay [15] is T3, Mannose-6-phosphate isomerase (Homo sapiens, UniProt P34949).
T3 sequence (P34949 whole entry): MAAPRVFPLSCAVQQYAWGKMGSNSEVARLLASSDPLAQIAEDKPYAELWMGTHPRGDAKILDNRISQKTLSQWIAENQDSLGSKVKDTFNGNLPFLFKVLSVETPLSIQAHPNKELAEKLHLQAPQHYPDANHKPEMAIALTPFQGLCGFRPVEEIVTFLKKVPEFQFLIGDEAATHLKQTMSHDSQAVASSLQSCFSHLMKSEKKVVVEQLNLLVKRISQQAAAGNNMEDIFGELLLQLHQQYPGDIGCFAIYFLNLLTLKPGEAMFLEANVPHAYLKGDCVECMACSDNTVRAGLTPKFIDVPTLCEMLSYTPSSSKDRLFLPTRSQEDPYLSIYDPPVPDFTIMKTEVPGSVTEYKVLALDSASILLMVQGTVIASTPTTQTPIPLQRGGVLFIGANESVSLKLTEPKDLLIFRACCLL
The assay is described as follows: MPI inhibition at elevated mannose 6-phosphate – biochemical, fluorescence intensity, high mannose 6-phosphate, primary screen (AID 1220).

The test system of assay [16] is BJ. The assay is described as follows: cells. The following applies: Homo sapiens. It counts as functional, cell-based.

Transitional endoplasmic reticulum ATPase (Homo sapiens, UniProt P55072, C522A), sequence (P55072 2-806 C522A limits assumed): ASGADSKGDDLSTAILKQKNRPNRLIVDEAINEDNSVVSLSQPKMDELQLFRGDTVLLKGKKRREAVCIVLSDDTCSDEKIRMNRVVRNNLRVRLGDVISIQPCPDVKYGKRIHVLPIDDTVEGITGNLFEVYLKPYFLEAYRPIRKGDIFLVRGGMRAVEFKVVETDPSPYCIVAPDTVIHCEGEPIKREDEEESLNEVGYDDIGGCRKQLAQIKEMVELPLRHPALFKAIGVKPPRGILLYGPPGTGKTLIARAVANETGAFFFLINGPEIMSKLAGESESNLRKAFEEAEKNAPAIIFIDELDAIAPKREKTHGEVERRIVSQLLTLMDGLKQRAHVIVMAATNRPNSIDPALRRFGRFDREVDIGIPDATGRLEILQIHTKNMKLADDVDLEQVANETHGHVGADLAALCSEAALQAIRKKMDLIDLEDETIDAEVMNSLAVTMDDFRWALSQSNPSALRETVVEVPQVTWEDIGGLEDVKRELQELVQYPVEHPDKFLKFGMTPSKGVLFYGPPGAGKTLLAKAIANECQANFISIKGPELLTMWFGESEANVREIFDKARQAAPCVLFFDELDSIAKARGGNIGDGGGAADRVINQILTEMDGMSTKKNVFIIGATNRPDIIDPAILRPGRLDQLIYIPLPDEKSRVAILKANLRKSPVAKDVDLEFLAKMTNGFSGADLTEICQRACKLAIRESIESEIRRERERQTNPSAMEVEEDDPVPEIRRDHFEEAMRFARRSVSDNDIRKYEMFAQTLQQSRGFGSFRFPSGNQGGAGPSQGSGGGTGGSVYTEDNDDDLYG

The term AC50 denotes the midpoint of the concentration-response curve, whichever way the signal moves. Usually IC50 stands for the point on the concentration scale where inhibition reaches its midpoint. As for `CCc1ccc(S(=O)(=O)Nc2cc(SCC(=O)O)c(O)c3ccccc23)cc1`, the concentration at half-maximal activity (AC50) in assay [1] is 4.83 µM (active). Besides, the IC50 in [2] is 85.9 µM (inactive).

As for `O=[N+]([O-])c1ccc(Sc2cccc[n+]2[O-])c2nonc12`, the AC50 is 3.91 µM (active) in assay [3], 5.12 µM (active) in [1] and 8.5 µM (active) in assay [4].

`N#Cc1c(N2CCCCC2)nc(N)c2c(N)nc(SCC(=O)O)cc12`: the half-inhibitory concentration (IC50) in assay [5] and in assay [6] was > 50 µM (not active) each time.

A word on the EC50: it is the concentration giving half of the maximal effect. With `Oc1c(Cl)cc(Cl)c(Cl)c1Cc1c(O)c(Cl)cc(Cl)c1Cl` [HEXACHLOROPHENE], the EC50 was 16.2 µM (active) in assay [7], 0.244 µM (active) in assay [8], > 38 µM (not active) in [9] and 0.262 µM (active) in assay [10]. Also, the 50% inhibitory concentration (IC50) in assay [5] is > 50 µM (not active); in [6] it was 5.49 µM (active); in [12], > 10 µM (inactive); in [13], 0.46 µM (active); in assay [14], 0.0157 µM (active). Besides, the results for the half-maximal activity concentration (AC50) in assay [3] and in assay [11] were 0.77 µM (active) and 3.3 µM (active), respectively.

For `CC1(C)Cc2ccccc2C2=NNC(=O)C2=N1`, the IC50 was 14.1 µM (active) in assay [15] and 22.9 µM (inactive) in assay [2]. The concentration at half-maximal activity (AC50) in assay [1] was 16.4 µM (active).

`CCCC(=O)NC(c1ccc(C(C)C)cc1)c1ccc2cccnc2c1O` (configuration not stated): the half-maximal effective concentration (EC50) in assay [7] is 22.1 µM (inconclusive); in assay [8], 2.55 µM (active); in assay [16] it was 2.91 µM (active); in [9], 0.621 µM (active); in [10], 6.95 µM (active). In addition, the concentration at half-maximal activity (AC50) in [11] is 1.21 µM (active).
